Source: patent US20240270762A1, “PENICILLIN-BINDING PROTEIN INHIBITORS” (priority 2021, published 2024)
In brackets after ≈: the same amount, converted by molar mass.

Experiments:
P. aeruginosa ATCC 35151 = assay: microbe, parasite or virus in culture; assay type: cell-based; conditions: Pseudomonas aeruginosa, ATCC35151, read-out: Minimum inhibitory concentration, P. aeruginosa ATCC 35151
P. aeruginosa CDC-0110 = assay: microbe, parasite or virus in culture; assay type: cell-based; conditions: Pseudomonas aeruginosa, CDC0110, read-out: Minimum inhibitory concentration, P. aeruginosa CDC-0110
A. baumannii CDC-0033 = assay: microbe, parasite or virus in culture; assay type: cell-based; conditions: Acinetobacter baumannii, CDC0033, read-out: MIC, A. baumannii CDC-0033
[1] = test system: B. humptydooensis ATCC BAA-2767; assay: microbe, parasite or virus in culture; assay type: cell-based; conditions: Burkholderia humptydooensis, ATCCBAA2767, read-out: Minimum inhibitory concentration (MIC), B. humptydooensis ATCC BAA-2767
P. aeruginosa CDC-0090 = assay: microbe, parasite or virus in culture; assay type: cell-based; conditions: Pseudomonas aeruginosa, CDC0090, read-out: Minimum inhibitory concentration, P. aeruginosa CDC-0090
[2] = target: T1, PBP3 from Pseudomonas aeruginosa (PAO1) (Pseudomonas aeruginosa, UniProt G3XD46); assay: Bocillin-FL fluorescence polarization competition binding, P. aeruginosa PBP3; conditions: Binding affinity to P. aeruginosa PBP3; fluorescence polarization competition binding assay using Bocillin-FL; read-out: P. aeruginosa PBP3 Potency
T1 construct: made in house
How it was run: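 Purified PBP was preincubated with inhibitor (E. coli PBP3 1.5 μM, 30 min; P. aeruginosa PBP3 0.75 μM, A. baumannii PBP3 0.2 μM and PBP1a 1 μM, 15 min), then Bocillin-FL (0.1 μM; 0.05 μM for PBP1a) added and FP read up to 60 min. EC50 = 50% loss of bound probe.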

A. baumannii CDC-0083 = assay: microbe, parasite or virus in culture; assay type: cell-based; conditions: Acinetobacter baumannii, CDC0083, read-out: MIC, A. baumannii CDC-0083
A. baumannii CDC-0045 = assay: microbe, parasite or virus in culture; assay type: cell-based; conditions: Acinetobacter baumannii, CDC0045, read-out: MIC, A. baumannii CDC-0045
P. aeruginosa ATCC 27853 = assay: microbe, parasite or virus in culture; assay type: cell-based; conditions: Pseudomonas aeruginosa, ATCC27853, read-out: Minimum inhibitory concentration, P. aeruginosa ATCC 27853
A. baumannii ATCC 19606 = assay: microbe, parasite or virus in culture; assay type: cell-based; conditions: Acinetobacter baumannii, ATCC19606, read-out: MIC, A. baumannii ATCC 19606
P. aeruginosa CDC-0095 = assay: microbe, parasite or virus in culture; assay type: cell-based; conditions: Pseudomonas aeruginosa, CDC0095, read-out: Minimum inhibitory concentration, P. aeruginosa CDC-0095

T1 sequence (G3XD46 whole entry): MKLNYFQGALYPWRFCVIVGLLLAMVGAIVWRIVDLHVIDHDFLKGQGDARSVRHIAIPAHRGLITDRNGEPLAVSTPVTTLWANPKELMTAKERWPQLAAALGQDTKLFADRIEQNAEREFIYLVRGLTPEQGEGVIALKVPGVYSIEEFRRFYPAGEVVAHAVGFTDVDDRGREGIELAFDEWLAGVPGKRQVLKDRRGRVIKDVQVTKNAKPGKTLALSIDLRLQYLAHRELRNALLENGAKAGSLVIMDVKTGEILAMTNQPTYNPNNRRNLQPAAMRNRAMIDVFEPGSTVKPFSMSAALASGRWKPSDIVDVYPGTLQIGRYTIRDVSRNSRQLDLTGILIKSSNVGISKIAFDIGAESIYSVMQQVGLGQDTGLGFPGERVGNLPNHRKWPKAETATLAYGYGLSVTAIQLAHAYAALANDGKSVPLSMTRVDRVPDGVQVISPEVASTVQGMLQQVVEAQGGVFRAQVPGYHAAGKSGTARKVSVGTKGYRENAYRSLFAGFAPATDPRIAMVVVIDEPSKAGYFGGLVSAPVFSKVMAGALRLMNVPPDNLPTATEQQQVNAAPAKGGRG

SMILES | MIC (P. aeruginosa ATCC 35151) | MIC (P. aeruginosa CDC-0110) | MIC (A. baumannii CDC-0033) | MIC [1] | MIC (P. aeruginosa CDC-0090) | IC50 [2] | MIC (A. baumannii CDC-0083) | MIC (A. baumannii CDC-0045) | MIC (P. aeruginosa ATCC 27853) | MIC (A. baumannii ATCC 19606) | MIC (P. aeruginosa CDC-0095)
O=C(NCCCN1CCN(C(=O)NC(C(=O)N[C@H]2Cc3ccc(F)c(C(=O)O)c3OB2O)c2cc(F)c(O)c(O)c2Cl)C(=O)C1=O)c1ccc(O)c(F)c1 (stereo partly drawn) [Example 304, (3R)-3-(2-(2-chloro-5-fluoro-3,4-dihydroxyphenyl)-2-(4-(3-(3-fluoro-4-hydroxybenzamido)propyl)-2,3-dioxopiperazine-1-carboxamido)acetamido)-7-fluoro-2-hydroxy-3,4-dihydro-2H-benzo[e][1,2]oxaborinine-8-carboxylic acid] | < 1 µg/mL | < 1 µg/mL | 2 to 4 µg/mL (≈ 2.57 to 5.14 µM) | 2 to 4 µg/mL (≈ 2.57 to 5.14 µM) | < 1 µg/mL | < 10 µM | < 1 µg/mL | < 1 µg/mL | 2 to 4 µg/mL (≈ 2.57 to 5.14 µM) | < 1 µg/mL | < 1 µg/mL
O=C(NCCCN1CCN(C(=O)NC(C(=O)N[C@H]2Cc3ccc(F)c(C(=O)O)c3OB2O)c2cc(F)c(O)c(O)c2Cl)C1=O)c1cccnc1 (stereo partly drawn) [Example 281, (3R)-3-(2-(2-chloro-5-fluoro-3,4-dihydroxyphenyl)-2-(3-(3-(nicotinamido)propyl)-2-oxoimidazolidine-1-carboxamido)acetamido)-7-fluoro-2-hydroxy-3,4-dihydro-2H-benzo[e][1,2]oxaborinine-8-carboxylic acid] | < 1 µg/mL | 2 to 4 µg/mL (≈ 2.79 to 5.58 µM) | 2 to 4 µg/mL (≈ 2.79 to 5.58 µM) | < 1 µg/mL | 2 to 4 µg/mL (≈ 2.79 to 5.58 µM) | < 10 µM | 8 to 16 µg/mL (≈ 11.2 to 22.3 µM) | < 1 µg/mL | 2 to 4 µg/mL (≈ 2.79 to 5.58 µM) | < 1 µg/mL | 2 to 4 µg/mL (≈ 2.79 to 5.58 µM)
O=C(NCCS(=O)(=O)N1CCN(C(=O)N[C@H](C(=O)N[C@H]2Cc3ccc(F)c(C(=O)O)c3OB2O)c2cc(F)c(O)c(O)c2Cl)C1=O)c1ccc(O)cc1 [Example 286, (R)-3-((S)-2-(2-chloro-5-fluoro-3,4-dihydroxyphenyl)-2-(3-((2-(4-hydroxybenzamido)ethyl)sulfonyl)-2-oxoimidazolidine-1-carboxamido)acetamido)-7-fluoro-2-hydroxy-3,4-dihydro-2H-benzo[e][1,2]oxaborinine-8-carboxylic acid] | 8 to 16 µg/mL (≈ 10.2 to 20.5 µM) | > 128 µg/mL | > 128 µg/mL | > 128 µg/mL | > 128 µg/mL | > 250 µM | > 128 µg/mL | > 128 µg/mL | > 128 µg/mL | > 128 µg/mL | > 128 µg/mL
O=C(NCCCS(=O)(=O)N1CCN(C(=O)NC(C(=O)N[C@H]2Cc3ccc(F)c(C(=O)O)c3OB2O)c2cc(F)c(O)c(O)c2Cl)C1=O)Nc1ccncc1 (stereo partly drawn) [Example 291, (3R)-3-(2-(2-chloro-5-fluoro-3,4-dihydroxyphenyl)-2-(2-oxo-3-((3-(3-(pyridin-4-yl)ureido)propyl)sulfonyl)imidazolidine-1-carboxamido)acetamido)-7-fluoro-2-hydroxy-3,4-dihydro-2H-benzo[e][1,2]oxaborinine-8-carboxylic acid] | < 1 µg/mL | 2 to 4 µg/mL (≈ 2.51 to 5.03 µM) | 2 to 4 µg/mL (≈ 2.51 to 5.03 µM) | < 1 µg/mL | 2 to 4 µg/mL (≈ 2.51 to 5.03 µM) | < 10 µM | < 1 µg/mL | 2 to 4 µg/mL (≈ 2.51 to 5.03 µM) | 2 to 4 µg/mL (≈ 2.51 to 5.03 µM) | < 1 µg/mL | > 128 µg/mL
O=C(NCCCN1CCN(C(=O)N[C@H](C(=O)N[C@H]2Cc3ccc(F)c(C(=O)O)c3OB2O)c2cc(F)c(O)c(O)c2Cl)C(=O)C1=O)c1cc(F)c(O)cc1F (single isomer, unassigned) [Example 472] | < 1 µg/mL | < 1 µg/mL | 8 to 16 µg/mL (≈ 10.1 to 20.1 µM) | 2 to 4 µg/mL (≈ 2.51 to 5.03 µM) | 2 to 4 µg/mL (≈ 2.51 to 5.03 µM) | 10 to 50 µM | > 128 µg/mL | 8 to 16 µg/mL (≈ 10.1 to 20.1 µM) | 2 to 4 µg/mL (≈ 2.51 to 5.03 µM) | 2 to 4 µg/mL (≈ 2.51 to 5.03 µM) | < 1 µg/mL
O=C(O)c1c(F)ccc2c1OB(O)[C@@H](NC(=O)C(NC(=O)N1CCN(Cc3ccc(O)c(O)c3Cl)C(=O)C1=O)c1cc(F)c(O)c(O)c1Cl)C2 (stereo partly drawn) [Example 292, (3R)-3-(2-(4-(2-chloro-3,4-dihydroxybenzyl)-2,3-dioxopiperazine-1-carboxamido)-2-(2-chloro-5-fluoro-3,4-dihydroxyphenyl)acetamido)-7-fluoro-2-hydroxy-3,4-dihydro-2H-benzo[e][1,2]oxaborinine-8-carboxylic acid] | < 1 µg/mL | > 128 µg/mL | > 128 µg/mL | > 128 µg/mL | < 1 µg/mL | < 10 µM | > 128 µg/mL | > 128 µg/mL | < 1 µg/mL | > 128 µg/mL | > 128 µg/mL
O=C(NCCCS(=O)(=O)N1CCN(C(=O)NC(C(=O)N[C@H]2Cc3ccc(F)c(C(=O)O)c3OB2O)c2cc(F)c(O)c(O)c2Cl)C1=O)Nc1cccnc1 (stereo partly drawn) [Example 278, (3R)-3-(2-(2-chloro-5-fluoro-3,4-dihydroxyphenyl)-2-(2-oxo-3-((3-(3-(pyridin-3-yl)ureido)propyl)sulfonyl)imidazolidine-1-carboxamido)acetamido)-7-fluoro-2-hydroxy-3,4-dihydro-2H-benzo[e][1,2]oxaborinine-8-carboxylic acid] | < 1 µg/mL | 2 to 4 µg/mL (≈ 2.51 to 5.03 µM) | 8 to 16 µg/mL (≈ 10.1 to 20.1 µM) | 2 to 4 µg/mL (≈ 2.51 to 5.03 µM) | 2 to 4 µg/mL (≈ 2.51 to 5.03 µM) | < 10 µM | < 1 µg/mL | < 1 µg/mL | 2 to 4 µg/mL (≈ 2.51 to 5.03 µM) | < 1 µg/mL | 8 to 16 µg/mL (≈ 10.1 to 20.1 µM)
Cc1cc(C(=O)NCCCN2CCN(C(=O)NC(C(=O)N[C@H]3Cc4ccc(F)c(C(=O)O)c4OB3O)c3cc(F)c(O)c(O)c3Cl)C(=O)C2=O)c(F)cn1 (stereo partly drawn) [Example 301, (3R)-3-(2-(2-chloro-5-fluoro-3,4-dihydroxyphenyl)-2-(4-(3-(5-fluoro-2-methylisonicotinamido)propyl)-2,3-dioxopiperazine-1-carboxamido)acetamido)-7-fluoro-2-hydroxy-3,4-dihydro-2H-benzo[e][1,2]oxaborinine-8-carboxylic acid] | < 1 µg/mL | < 1 µg/mL | 2 to 4 µg/mL (≈ 2.57 to 5.15 µM) | 2 to 4 µg/mL (≈ 2.57 to 5.15 µM) | < 1 µg/mL | < 10 µM | < 1 µg/mL | < 1 µg/mL | < 1 µg/mL | < 1 µg/mL | < 1 µg/mL
O=C(NCCCN1CCN(C(=O)N[C@H](C(=O)N[C@H]2Cc3ccc(F)c(C(=O)O)c3OB2O)c2cc(F)c(O)c(O)c2Cl)C(=O)C1=O)c1ccc(O)cc1Cl (single isomer, unassigned) [Example 470] | < 1 µg/mL | 8 to 16 µg/mL (≈ 10.1 to 20.1 µM) | 8 to 16 µg/mL (≈ 10.1 to 20.1 µM) | 8 to 16 µg/mL (≈ 10.1 to 20.1 µM) | 2 to 4 µg/mL (≈ 2.52 to 5.04 µM) | 10 to 50 µM | > 128 µg/mL | > 128 µg/mL | 2 to 4 µg/mL (≈ 2.52 to 5.04 µM) | 8 to 16 µg/mL (≈ 10.1 to 20.1 µM) | < 1 µg/mL
O=C(NCCCN1CCN(C(=O)N[C@H](C(=O)N[C@H]2Cc3ccc(F)c(C(=O)O)c3OB2O)c2cc(F)c(O)c(O)c2Cl)C(=O)C1=O)c1cccc(O)c1Cl [Example 302, (R)-3-((S)-2-(4-(3-(2-chloro-3-hydroxybenzamido)propyl)-2,3-dioxopiperazine-1-carboxamido)-2-(2-chloro-5-fluoro-3,4-dihydroxyphenyl)acetamido)-7-fluoro-2-hydroxy-3,4-dihydro-2H-benzo[e][1,2]oxaborinine-8-carboxylic acid] | 2 to 4 µg/mL (≈ 2.52 to 5.04 µM) | > 128 µg/mL | > 128 µg/mL | > 128 µg/mL | 32 to 64 µg/mL (≈ 40.3 to 80.6 µM) | 50 to 250 µM | > 128 µg/mL | > 128 µg/mL | 32 to 64 µg/mL (≈ 40.3 to 80.6 µM) | 32 to 64 µg/mL (≈ 40.3 to 80.6 µM) | > 128 µg/mL
O=C(NCCCN1CCN(C(=O)N[C@H](C(=O)N[C@H]2Cc3ccc(F)c(C(=O)O)c3OB2O)c2cc(F)c(O)c(O)c2Cl)C(=O)C1=O)c1ccnc(F)c1F [Example 299, (R)-3-((S)-2-(2-chloro-5-fluoro-3,4-dihydroxyphenyl)-2-(4-(3-(2,3-difluoroisonicotinamido)propyl)-2,3-dioxopiperazine-1-carboxamido)acetamido)-7-fluoro-2-hydroxy-3,4-dihydro-2H-benzo[e][1,2]oxaborinine-8-carboxylic acid] | < 1 µg/mL | 8 to 16 µg/mL (≈ 10.2 to 20.5 µM) | 8 to 16 µg/mL (≈ 10.2 to 20.5 µM) | > 128 µg/mL | 2 to 4 µg/mL (≈ 2.56 to 5.12 µM) | 10 to 50 µM | 2 to 4 µg/mL (≈ 2.56 to 5.12 µM) | > 128 µg/mL | 8 to 16 µg/mL (≈ 10.2 to 20.5 µM) | 2 to 4 µg/mL (≈ 2.56 to 5.12 µM) | 2 to 4 µg/mL (≈ 2.56 to 5.12 µM)
